Consider three molecules from ChEMBL document CHEMBL5380815, “Probing Ligand Binding Sites on Large Proteins by Nuclear Magnetic Resonance Spectroscopy of Genetically Encoded Non-Canonical Amino Acids” (J Med Chem, 2023).

Activity calls are given as the source filed them. The rule behind the calls is not given here.

The subject of assay [1] is Replicase polyprotein 1ab (Severe acute respiratory syndrome coronavirus 2), P0DTD1 [UNDEFINED MUTATION]. Put plainly: Inhibition of recombinant SARS-COV2 main protease N72TMSK mutant expressed in Escherichia coli BL21 (DE3) using DABCYL-KTSAVLQSGFRKME-EDANS-NH2 as fluorogenic substrate at 16 to 1000 nM preincubated for 10 mins followed by substrate addition by FRET assay. The conditions noted are these: dose 16-1000 nM.

The test system is the same in assay [2]. Put plainly: Inhibition of recombinant SARS-COV2 main protease N142TMSK mutant expressed in Escherichia coli BL21 (DE3) using DABCYL-KTSAVLQSGFRKME-EDANS-NH2 as fluorogenic substrate at 16 to 1000 nM preincubated for 10 mins followed by substrate addition by FRET assay. The conditions noted are these: dose 16-1000 nM.
Assay [3] has the same test system. Briefly: Inhibition of recombinant SARS-COV2 main protease V186TMSK mutant expressed in Escherichia coli BL21 (DE3) using DABCYL-KTSAVLQSGFRKME-EDANS-NH2 as fluorogenic substrate at 16 to 1000 nM preincubated for 10 mins followed by substrate addition by FRET assay. The conditions noted are these: dose 16-1000 nM.
For assay [4] the test system is unchanged. Put plainly: Inhibition of recombinant SARS-COV2 main protease L50TMSK mutant expressed in Escherichia coli BL21 (DE3) using DABCYL-KTSAVLQSGFRKME-EDANS-NH2 as fluorogenic substrate at 16 to 1000 nM preincubated for 10 mins followed by substrate addition by FRET assay. To be noted: dose 16-1000 nM.
For assay [5] the test system is unchanged. Put plainly: Inhibition of recombinant SARS-COV2 main protease A255TMSK mutant expressed in Escherichia coli BL21 (DE3) using DABCYL-KTSAVLQSGFRKME-EDANS-NH2 as fluorogenic substrate at 16 to 1000 nM preincubated for 10 mins followed by substrate addition by FRET assay. To be noted: dose 16-1000 nM.
For assay [6], the system named is Replicase polyprotein 1ab (Severe acute respiratory syndrome coronavirus 2), P0DTD1 [N142A]. Briefly: Inhibition of recombinant SARS-COV2 main protease N142A mutant expressed in Escherichia coli BL21 (DE3) using DABCYL-KTSAVLQSGFRKME-EDANS-NH2 as fluorogenic substrate at 16 to 100 nM preincubated for 10 mins followed by substrate addition by FRET assay. The conditions noted are these: dose 16-100 nM.

The test system of assay [7] is Replicase polyprotein 1ab (Severe acute respiratory syndrome coronavirus 2), P0DTD1 [S46A]. Briefly: Inhibition of recombinant SARS-COV2 main protease S46A mutant expressed in Escherichia coli BL21 (DE3) using DABCYL-KTSAVLQSGFRKME-EDANS-NH2 as fluorogenic substrate at 16 to 100 nM preincubated for 10 mins followed by substrate addition by FRET assay. The conditions noted are these: dose 16-100 nM.

Assay [8] concerns Replicase polyprotein 1ab (Severe acute respiratory syndrome coronavirus 2), P0DTD1 [UNDEFINED MUTATION]. Briefly: Inhibition of recombinant SARS-COV2 main protease S46TMSK mutant expressed in Escherichia coli BL21 (DE3) using DABCYL-KTSAVLQSGFRKME-EDANS-NH2 as fluorogenic substrate at 16 to 1000 nM preincubated for 10 mins followed by substrate addition by FRET assay. The conditions noted are these: dose 16-1000 nM.

In assay [9] the test system is Replicase polyprotein 1ab (Severe acute respiratory syndrome coronavirus 2), P0DTD1 [V186A]. Put plainly: Inhibition of recombinant SARS-COV2 main protease V186A mutant expressed in Escherichia coli BL21 (DE3) using DABCYL-KTSAVLQSGFRKME-EDANS-NH2 as fluorogenic substrate at 16 to 100 nM preincubated for 10 mins followed by substrate addition by FRET assay. The conditions noted are these: dose 16-100 nM.

Assay [10] has as its system Replicase polyprotein 1ab (Severe acute respiratory syndrome coronavirus 2), P0DTD1 [L50A]. Put plainly: Inhibition of recombinant SARS-COV2 main protease L50A mutant expressed in Escherichia coli BL21 (DE3) using DABCYL-KTSAVLQSGFRKME-EDANS-NH2 as fluorogenic substrate at 16 to 100 nM preincubated for 10 mins followed by substrate addition by FRET assay. The conditions noted are these: dose 16-100 nM.

The subject of assay [11] is Replicase polyprotein 1ab (Severe acute respiratory syndrome coronavirus 2), P0DTD1 [N72A]. Put plainly: Inhibition of recombinant SARS-COV2 main protease N72A mutant expressed in Escherichia coli BL21 (DE3) using DABCYL-KTSAVLQSGFRKME-EDANS-NH2 as fluorogenic substrate at 16 to 100 nM preincubated for 10 mins followed by substrate addition by FRET assay. To be noted: dose 16-100 nM.

For assay [12], the system named is Replicase polyprotein 1ab (Severe acute respiratory syndrome coronavirus 2), P0DTD1 [N142L]. Briefly: Inhibition of SARS-COV2 main protease N142L mutant assessed as fold increase in IC50.
In assay [13] the test system is Replicase polyprotein 1ab (Severe acute respiratory syndrome coronavirus 2), P0DTD1 [UNDEFINED MUTATION]. Briefly: Inhibition of recombinant SARS-COV2 main protease L50TMSK mutant expressed in Escherichia coli BL21 (DE3) using DABCYL-KTSAVLQSGFRKME-EDANS-NH2 as fluorogenic substrate at 5 to 50 uM preincubated for 10 mins followed by substrate addition by FRET assay. To be noted: dose 5-50 µM.

For assay [14] the test system is unchanged. Briefly: Inhibition of recombinant SARS-COV2 main protease N72TMSK mutant expressed in Escherichia coli BL21 (DE3) using DABCYL-KTSAVLQSGFRKME-EDANS-NH2 as fluorogenic substrate at 5 to 50 uM preincubated for 10 mins followed by substrate addition by FRET assay. To be noted: dose 5-50 µM.
For assay [15] the test system is unchanged. Put plainly: Inhibition of recombinant SARS-COV2 main protease S46TMSK mutant expressed in Escherichia coli BL21 (DE3) using DABCYL-KTSAVLQSGFRKME-EDANS-NH2 as fluorogenic substrate at 5 to 50 uM preincubated for 10 mins followed by substrate addition by FRET assay. The conditions noted are these: dose 5-50 µM.
The test system is the same in assay [16]. Briefly: Inhibition of recombinant SARS-COV2 main protease A191TMSK mutant expressed in Escherichia coli BL21 (DE3) using DABCYL-KTSAVLQSGFRKME-EDANS-NH2 as fluorogenic substrate at 5 to 50 uM preincubated for 10 mins followed by substrate addition by FRET assay. To be noted: dose 5-50 µM.
The test system is the same in assay [17]. Put plainly: Inhibition of recombinant SARS-COV2 main protease L232TMSK mutant expressed in Escherichia coli BL21 (DE3) using DABCYL-KTSAVLQSGFRKME-EDANS-NH2 as fluorogenic substrate at 5 to 50 uM preincubated for 10 mins followed by substrate addition by FRET assay. The conditions noted are these: dose 5-50 µM.
For assay [18] the test system is unchanged. Briefly: Inhibition of recombinant SARS-COV2 main protease A255TMSK mutant expressed in Escherichia coli BL21 (DE3) using DABCYL-KTSAVLQSGFRKME-EDANS-NH2 as fluorogenic substrate at 5 to 50 uM preincubated for 10 mins followed by substrate addition by FRET assay. The conditions noted are these: dose 5-50 µM.
Assay [19] has the same test system. Put plainly: Inhibition of recombinant SARS-COV2 main protease V186TMSK mutant expressed in Escherichia coli BL21 (DE3) using DABCYL-KTSAVLQSGFRKME-EDANS-NH2 as fluorogenic substrate at 5 to 50 uM preincubated for 10 mins followed by substrate addition by FRET assay. To be noted: dose 5-50 µM.
The test system is the same in assay [20]. Put plainly: Inhibition of recombinant SARS-COV2 main protease N142TMSK mutant expressed in Escherichia coli BL21 (DE3) using DABCYL-KTSAVLQSGFRKME-EDANS-NH2 as fluorogenic substrate at 5 to 50 uM preincubated for 10 mins followed by substrate addition by FRET assay. The conditions noted are these: dose 5-50 µM.
Assay [21] has the same test system. Briefly: Activation of recombinant SARS-COV2 main protease I213TMSK mutant expressed in Escherichia coli BL21 (DE3) using DABCYL-KTSAVLQSGFRKME-EDANS-NH2 as fluorogenic substrate at 15 uM preincubated for 10 mins followed by substrate addition by FRET assay. The conditions noted are these: filed as activator.
Assay [22] has the same test system. Briefly: Activation of recombinant SARS-COV2 main protease I213TFAK mutant expressed in Escherichia coli BL21 (DE3) using DABCYL-KTSAVLQSGFRKME-EDANS-NH2 as fluorogenic substrate at 15 uM preincubated for 10 mins followed by substrate addition by FRET assay. To be noted: filed as activator.
Assay [23] has the same test system. Put plainly: Activation of recombinant SARS-COV2 main protease V297TMSK mutant expressed in Escherichia coli BL21 (DE3) using DABCYL-KTSAVLQSGFRKME-EDANS-NH2 as fluorogenic substrate at 1.5 to 50 uM preincubated for 10 mins followed by substrate addition by FRET assay. The conditions noted are these: filed as activator, dose 1.5-50 µM.
The test system is the same in assay [24]. Briefly: Activation of recombinant SARS-COV2 main protease V297TFAK mutant expressed in Escherichia coli BL21 (DE3) using DABCYL-KTSAVLQSGFRKME-EDANS-NH2 as fluorogenic substrate at 1.5 to 50 uM preincubated for 10 mins followed by substrate addition by FRET assay. To be noted: filed as activator, dose 1.5-50 µM.

Regarding `CC(=O)[C@@H]1CSCC(=O)N[C@H](Cc2ccc(O)cc2)C(=O)N[C@@H](CC(C)C)C(=O)N[C@@H](CCC(N)=O)C(=O)N[C@@H](Cc2ccc(O)cc2)C(=O)N[C@@H](C)C(=O)N[C@@H](C(C)C)C(=O)N[C@@H](CC(C)C)C(=O)N[C@@H](CCCNC(=N)N)C(=O)N[C@@H](Cc2c[nH]cn2)C(=O)N[C@@H](CCCCN)C(=O)N[C@@H](CCCNC(=N)N)C(=O)N[C@@H](CCCNC(=N)N)C(=O)N[C@@H](CCC(=O)O)C(=O)C1`, the inhibition result in assay [1], in assay [2], in [3], in assay [4], in [5] and in [6] was “Dose-Dependent Effect” each time. In addition, the inhibition result in assay [7], in assay [8], in assay [9], in [10] and in assay [11] was “Dose-Dependent Effect” in each case. Also, the fold change (FC) in assay [12] was found to be 5.

In the case of `CCCC[C@@H](C=O)NC(=O)[C@H](CC(C)C)NC(=O)OCc1ccccc1`, the inhibition result in assay [13], in assay [14], in [15], in assay [16], in assay [17] and in assay [18] was “Dose-Dependent Effect” throughout. For the same molecule, the inhibition entry in assay [19] and in assay [20] was “Dose-Dependent Effect” in each case.

`CCOc1cc2ncc(C#N)c(Nc3ccc(F)c(Cl)c3)c2cc1NC(=O)/C=C/CN(C)C` [PELITINIB]: the outcome in assay [21] and in assay [22] was Active. Besides, the Activity result in assay [23] and in assay [24] was “Dose-Dependent Effect” throughout.
